According to ChEMBL document CHEMBL1201862, “PubChem BioAssay data set” (2004):
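Cultured in 96-well plates, cells were exposed to test compound for 48 hours across five concentrations. GI50 = concentration required for 50% inhibition of growth.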 Active and inactive are the calls of the source. Rule as the data show it: active = GI50 up to about 1.1 µM and inactive = higher.

Tests used:
Assay in all cases: NCI-60 cell line screen, 48 h
T47D = system: T47D
M14 = system: M14
Malme-3M = system: Malme-3M
CAKI-1 = system: CAKI-1
SK-OV-3 = system: SK-OV-3
SF-268 = system: SF-268
HOP-62 = system: HOP-62
K562 = system: K562
MDA-N = system: MDA-N
HCT-15 = system: HCT-15
MCF7 = system: MCF7
KM12 = system: KM12
NCI-H23 = system: NCI-H23
PC-3 = system: PC-3
SN12C = system: SN12C
IGROV-1 = system: IGROV-1
HCT-116 = system: HCT-116
SNB-19 = system: SNB-19
MDA-MB-435 = system: MDA-MB-435
HL-60 = system: HL-60

| Compound | GI50 (T47D) | GI50 (M14) | GI50 (Malme-3M) | GI50 (CAKI-1) | GI50 (SK-OV-3) | GI50 (SF-268) | GI50 (HOP-62) | GI50 (K562) | GI50 (MDA-N) | GI50 (HCT-15) | GI50 (MCF7) | GI50 (KM12) | GI50 (NCI-H23) | GI50 (PC-3) | GI50 (SN12C) | GI50 (IGROV-1) | GI50 (HCT-116) | GI50 (SNB-19) | GI50 (MDA-MB-435) | GI50 (HL-60) |
| --- | --- | --- | --- | --- | --- | --- | --- | --- | --- | --- | --- | --- | --- | --- | --- | --- | --- | --- | --- | --- |
| Oc1c(N2CCOCC2)cc(-c2cc(N3CCOCC3)c(O)c3ccccc23)c2ccccc12 | 12.8 µM (inactive) | 1.56 µM (inactive) | 0.486 µM (active) | 2.69 µM (inactive) | 6.47 µM (inactive) | 3.33 µM (inactive) | 1.69 µM (inactive) | 1.88 µM (inactive) | 0.389 µM (active) | 2.31 µM | 2.12 µM (inactive) | 6.05 µM (inactive) | 2.28 µM (inactive) | 2.64 µM (inactive) | 1.58 µM (inactive) | 2.4 µM (inactive) | 2.16 µM (inactive) | 3.61 µM (inactive) | 1.38 µM (inactive) |  |
| O=[N+]([O-])c1ccc(N/N=C2/CC3=C2CCCCCCCCCC3)c([N+](=O)[O-])c1 | > 100 µM (inactive) | > 100 µM (inactive) | > 100 µM (inactive) | > 100 µM (inactive) | > 100 µM (inactive) | > 100 µM (inactive) | > 100 µM (inactive) | > 100 µM (inactive) | > 100 µM (inactive) | > 100 µM | > 100 µM (inactive) | > 100 µM (inactive) | > 100 µM (inactive) | > 100 µM (inactive) | > 100 µM (inactive) | > 100 µM (inactive) | > 100 µM (inactive) | > 100 µM (inactive) | > 100 µM (inactive) |  |
| C/C(=N\Nc1ccccc1Br)c1cccc(/C(C)=N/Nc2ccccc2Br)n1 |  | > 100 µM (inactive) | 66.8 µM (inactive) | 49 µM (inactive) |  | 59 µM (inactive) | 49.8 µM (inactive) | 39.7 µM (inactive) | 31.7 µM (inactive) | > 100 µM | 54.1 µM (inactive) | 52.6 µM (inactive) | > 100 µM (inactive) | 42.8 µM (inactive) | > 100 µM (inactive) | 80.7 µM (inactive) | > 100 µM (inactive) | 63.1 µM (inactive) | 30 µM (inactive) | > 100 µM (inactive) |
| CN1CCOC1c1ccccc1O (stereo unspecified) | > 100 µM (inactive) | > 100 µM (inactive) | > 100 µM (inactive) | > 100 µM (inactive) | > 100 µM (inactive) | > 100 µM (inactive) | > 100 µM (inactive) | > 100 µM (inactive) | > 100 µM (inactive) | > 100 µM | > 100 µM (inactive) | > 100 µM (inactive) | > 100 µM (inactive) | > 100 µM (inactive) |  | > 100 µM (inactive) | > 100 µM (inactive) | > 100 µM (inactive) | > 100 µM (inactive) |  |
| CCC1(C)C=Cc2c(cc(OC)c3c(=O)c4ccccc4n(C)c23)O1 (stereo unspecified) | 4.99 µM (inactive) | > 10 µM (inactive) | > 10 µM (inactive) | 1.22 µM (inactive) | > 10 µM (inactive) | > 10 µM (inactive) | > 10 µM (inactive) | 8.61 µM (inactive) | > 10 µM (inactive) | 7.23 µM | 0.785 µM (active) | 1.5 µM (inactive) | > 10 µM (inactive) | > 10 µM (inactive) | > 10 µM (inactive) | > 10 µM (inactive) | > 10 µM (inactive) | > 10 µM (inactive) | > 10 µM (inactive) |  |
| CC1(C)CCC2=C(O1)c1ccccc1C(=O)C2=O [LAPACHONE] | 0.411 µM (active) | 0.316 µM (active) | 0.427 µM (active) | 1.03 µM (active) | 1.85 µM (inactive) | 0.682 µM (active) | 0.647 µM (active) | 0.245 µM (active) | 0.2 µM (active) |  | 0.455 µM (active) | 1.36 µM (inactive) | 0.427 µM (active) | 0.847 µM (active) | 0.51 µM (active) |  | 0.277 µM (active) |  | 2.07 µM (inactive) |  |
| C=C(Cl)/C(=C\Br)CCC(Cl)C(C)C.C=C(Cl)/C(=C\Cl)CCC(Cl)C(C)C (stereo unspecified) |  | 17.4 µM (inactive) | 15.1 µM (inactive) | 17.8 µM (inactive) | 22.8 µM (inactive) | 18.6 µM (inactive) | 18.3 µM (inactive) | 4.03 µM (inactive) | 15 µM (inactive) |  | 10.6 µM (inactive) | 14.3 µM (inactive) | 14.6 µM (inactive) | 19.8 µM (inactive) | 17.2 µM (inactive) | 14.7 µM (inactive) | 16.1 µM (inactive) | 17.6 µM (inactive) | 15.3 µM (inactive) | 4.24 µM (inactive) |
| CC1=CC2(C)C=C[C@@H]1C(=O)[C@@]1(C)CC[C@@](O)(C(C)C)[C@H]1CC2 | 25.8 µM (inactive) | 19.3 µM (inactive) | 19.4 µM (inactive) |  | 23.6 µM (inactive) | 23.8 µM (inactive) | 20.2 µM (inactive) | 20 µM (inactive) | 21.8 µM (inactive) | 24.2 µM | 28.4 µM (inactive) | 20.3 µM (inactive) | 19.1 µM (inactive) | 24.2 µM (inactive) | 20.9 µM (inactive) | 26.2 µM (inactive) | 17.3 µM (inactive) | 23.6 µM (inactive) | 20.3 µM (inactive) |  |
| CCOc1ccc(N/C(=C(/C(Cl)=C(/Cl)Nc2ccccc2)[N+](=O)[O-])n2nnc3ccccc32)cc1 | 40.5 µM (inactive) | 16 µM (inactive) | 21.9 µM (inactive) | 23.5 µM (inactive) | 40 µM (inactive) | 18.6 µM (inactive) | 24.5 µM (inactive) | 28.8 µM (inactive) | 19.8 µM (inactive) | 12.8 µM | 35.7 µM (inactive) | 32.7 µM (inactive) | 13.7 µM (inactive) | 23.2 µM (inactive) | 20.8 µM (inactive) |  | 22.8 µM (inactive) | 30.1 µM (inactive) | 29.4 µM (inactive) |  |
| C/C(=N\Nc1nc2ccccc2s1)c1cc2ccccc2cn1 | 0.378 µM (active) | 4.01 µM (inactive) | 4.61 µM (inactive) | 3.03 µM (inactive) | 3.15 µM (inactive) | 7.43 µM (inactive) | 3.2 µM (inactive) |  | 8.69 µM (inactive) | 0.424 µM | 0.27 µM (active) | 4.89 µM (inactive) | 3.21 µM (inactive) | 5.42 µM (inactive) | 4.29 µM (inactive) | 1.61 µM (inactive) | 3.03 µM (inactive) | 13.6 µM (inactive) | 5.24 µM (inactive) |  |
| COc1ccc(CCc2ccc3c(c2)OCO3)cc1 |  | 49.8 µM (inactive) | > 100 µM (inactive) | 75.5 µM (inactive) | > 100 µM (inactive) | > 100 µM (inactive) | > 100 µM (inactive) | 38.5 µM (inactive) | 28.9 µM (inactive) | 35.2 µM | 35.8 µM (inactive) | 29.2 µM (inactive) | > 100 µM (inactive) | 34.6 µM (inactive) | > 100 µM (inactive) | 70.5 µM (inactive) | 36.6 µM (inactive) | > 100 µM (inactive) | 19.6 µM (inactive) | 21.4 µM (inactive) |
| COc1cc(C/C=C/c2ccccc2)c(OC)cc1O [VIOLASTYRENE] | 17.4 µM (inactive) | 19.2 µM (inactive) | 22.6 µM (inactive) | 26.2 µM (inactive) |  | 25.9 µM (inactive) |  | 15.6 µM (inactive) | 17.9 µM (inactive) | 17.9 µM |  | 17 µM (inactive) | 21.3 µM (inactive) | 21.6 µM (inactive) | 19.1 µM (inactive) | 18.3 µM (inactive) | 17.3 µM (inactive) | 30.5 µM (inactive) | 18.5 µM (inactive) | 23.6 µM (inactive) |
| COCCOCN(C(=O)C1=CCC2(CC1)OCCO2)c1ccccc1I | > 50 µM (inactive) | > 50 µM (inactive) |  | > 50 µM (inactive) | > 50 µM (inactive) |  | > 50 µM (inactive) |  | > 50 µM (inactive) | > 50 µM | > 50 µM (inactive) | > 50 µM (inactive) | > 50 µM (inactive) | > 50 µM (inactive) | > 50 µM (inactive) |  | > 50 µM (inactive) | > 50 µM (inactive) | > 50 µM (inactive) |  |
| CCOC(=O)C(C/C=C/CO)N(C)C(=O)OC(C)(C)C (stereo unspecified) | > 100 µM (inactive) | > 100 µM (inactive) |  | > 100 µM (inactive) | > 100 µM (inactive) | 92.9 µM (inactive) | > 100 µM (inactive) | 83.9 µM (inactive) | > 100 µM (inactive) | > 100 µM | > 100 µM (inactive) | > 100 µM (inactive) | > 100 µM (inactive) | > 100 µM (inactive) | > 100 µM (inactive) | > 100 µM (inactive) | > 100 µM (inactive) | > 100 µM (inactive) |  | > 100 µM (inactive) |
| O=C(N/C(=C/c1ccc(Cl)cc1)c1nc2ccccc2c(=O)n1Nc1ccc([N+](=O)[O-])cc1[N+](=O)[O-])c1ccccc1 | > 100 µM (inactive) | > 100 µM (inactive) | > 100 µM (inactive) | > 100 µM (inactive) | > 100 µM (inactive) |  | > 100 µM (inactive) | > 100 µM (inactive) | > 100 µM (inactive) | > 100 µM | > 100 µM (inactive) | > 100 µM (inactive) | > 100 µM (inactive) | > 100 µM (inactive) | > 100 µM (inactive) | > 100 µM (inactive) | > 100 µM (inactive) | > 100 µM (inactive) | > 100 µM (inactive) |  |
| Cc1ccc(S(=O)(=O)NC(=O)NC(CCC(N)=O)C(=O)O)cc1 (stereo unspecified) | > 100 µM (inactive) | > 100 µM (inactive) | > 100 µM (inactive) |  | > 100 µM (inactive) | > 100 µM (inactive) | > 100 µM (inactive) | > 100 µM (inactive) | > 100 µM (inactive) | > 100 µM | > 100 µM (inactive) | > 100 µM (inactive) | > 100 µM (inactive) | > 100 µM (inactive) | > 100 µM (inactive) | > 100 µM (inactive) | > 100 µM (inactive) | > 100 µM (inactive) |  | 69.5 µM (inactive) |
